Reference: patent publication US11724999B2, “Inhibitors of RAS-effector protein interactions” (Oxford University Innovation Limited, priority 2018, dated 2023)

Tests used:
[1] = biological target: T1, GST-human KRas166 (G12V) GPPNHP (Homo sapiens, UniProt P01116, G12V); test: KRas small-molecule screening by SPR (BIACORE T200); type: binding; details: compound at final concentration of 100 uM; immobilised GST-KRAS166 (G12V) GPPNHP, GST reference channel
T1 construct: made in house; host or cells: E. coli C41(DE3)
Outline: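 E. coli-expressed GST-KRas166 (G12V) was loaded with GPPNHP and captured on an anti-GST CM5 chip at 10,000–15,000 RU, with GST as the reference channel. Compounds were injected at 100 uM in buffer containing 100 mM NaCl, 5 mM MgCl2 and 5% DMSO, with solvent correction. Binding was measured by Biacore T200 SPR against a theoretical Rmax.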

[2] = tested on: DLD1 cells (ATCC CCL-221); test: Cell viability assay (CellTiter-Glo), DLD1 cells; type: cell-based; details: Homo sapiens, DLD-1 cells, 48 h incubation, second value of the cell, read-out: Cell Viability (μM) DLD-1 (concentration that decreases cell viability by 50%)
Protocol: (§1) Cells (A549 ATCC CCL-185) are cultured in Dulbecco's Modified Eagle's Medium plus 10% foetal calf serum and 2 mM L-glutamine at 37° C., 5% CO2. Cells are plated onto white clear bottom 96-well plates (5000 cells/well in 200 μl media) and left to adhere overnight at 37° C., 5% CO2. Next day, test compound (1 μl at 200× concentration in 100% DMSO) is added to give final test compound concentration 1× in 0.5% DMSO. After 48 h of incubation at 37° C., 5% CO2, 20 μl CellTiter-Glo reagent (Promega G7572) is added into each well. Plates are incubated at room temperature with shaking for 30 min and then luminescence is read using a PheraStar plate reader. The concentration of compounds that decrease cell viability by 50% is calculated from dose response curves generated using Dotmatics data analysis software.
In the DLD1 cell assay, cells (ATCC CCL-221) are cultured in RPMI-1640 medium plus 10% foetal calf serum and 2 mM L-glutamine at 37° C., 5% CO2.

[3] = tested on: H358 cells (ATCC CRL-5807); test: Cell viability assay (CellTiter-Glo), H358 cells; type: cell-based; details: Homo sapiens, NCI-H358, 48 h incubation, first value of the cell, read-out: Cell Viability (μM) H358 (concentration that decreases cell viability by 50%)
Protocol: as §1
In the H358 cell assay, cells (ATCC CRL-5807) are cultured in RPM-1640 medium plus 10% foetal calf serum and 2 mM L-glutamine at 37° C., 5% CO2.

Row | SPR Response Units [1] | IC50 [2] | IC50 [3] | Compound
1 | 49 Response Units | 4 µM | 59 µM | CN1CCC2(CC1)NC(=O)N(C[C@@H]1COc3ccc(OCc4ccccc4)cc3O1)C2=O [Example 77, 3-((R)-7-Benzyloxy-2,3-dihydro-benzo[1,4]dioxin-2-ylmethyl)-8-methyl-1,3,8-triaza-spiro[4.5]decane-2,4-dione]
2 | 72 Response Units | 9 µM | 50 µM | O=C1CN(C2CCNCC2)C(=O)N1C[C@@H]1COc2ccc(OCc3ccccc3)cc2O1 [Example 79, 3-((R)-7-Benzyloxy-2,3-dihydro-benzo[1,4]dioxin-2-ylmethyl)-1-piperidin-4-yl-imidazolidine-2,4-dione]
3 | 64 Response Units | 10 µM | > 100 µM | NCC(=O)N[C@H]1CC[C@@H](NC(=O)C2COc3ccc(OCc4ccccc4)cc3O2)CC1 (stereo partly drawn) [Example 85, 7-Benzyloxy-2,3-dihydro-benzo[1,4]dioxine-2-carboxylic acid [4-(2-amino-acetylamino)-cyclohexyl]-amide]
